The structures appear in SMILES notation. Like-named read-outs stand apart in the source and are kept apart here.

Common to all, as to assay type: cell-based
Experiment [1] has as its system E. coli (AmpC). The experiment can be described thus: microbe, parasite or virus in culture. The conditions noted are these: Escherichia coli. As to the method: (§1) MICs were determined by the broth microdilution method in accordance with Clinical and Laboratories Institute (CLSI) guidelines. In brief, fresh overnight bacterial cultures were suspended in sterile saline, and adjusted to a 0.5 McFarland turbidity standard. Bacterial suspensions were then diluted in cation adjusted Mueller-Hinton Broth (MHB II; BBL) to yield a final inoculum of approximately 5×10^5 colony-forming units (CFU)/mL. A master plate of antibiotics was prepared at a concentration equivalent to hundred-fold the highest desired final concentration in 100% dimethyl sulfoxide (DMSO). The master antibiotic plate was then diluted by serial twofold dilution with a multichannel pipette. The resulting dilution series of compounds were diluted 1:10 with sterile water or a solution of beta-lactamase inhibitor prepared at a concentration equivalent to eleven-fold the desired final concentration in deionized water leading to a 10% DMSO final concentration. A volume of 10 μL of the drug dilution series was transferred to 96-well assay plates. Assay plates were inoculated with 90 μL of bacterial suspensions and incubated at 35° C. for 20 hrs. The assay plates were read using a microtiter plate reader (Molecular Devices) at 600 nm as well as by visual observation with a reading mirror. The lowest concentration of the compound that prevented visible growth was recorded as the MIC. Performance of the assay was monitored by testing aztreonam against laboratory quality control strains in accordance with guidelines of the CLSI.
(§2) Synergy or potentiation of beta-lactam antibiotics through inhibition of Q-lactamases was assessed against an isogenic panel of E. coli strains, each expressing a unique beta-lactamase, and against clinical strains.
The gene encoding AmpC was PCR amplified from the genome of strain P. aeruginosa PAO1 (NB52019) (GenBank ID U5R279) using primer pair E252 (gccCTCGAGggcgaggccccggcggatcgc) (SEQ ID NO: 17) and E253 (tgaGAATTCtcagcgcttcagcggcacct) (SEQ ID NO: 18).
The PCR products were then digested with XhoI and EcoRI and ligated into similarly digested plasmid pAH63-pstS(BlaP). Plasmid pAH63-pstS(BlaP) is a derivative of plasmid pAH63 (J Bacteriol: 183(21): 6384-6393) made by cloning the TEM-1 (bla) promoter and signal peptide encoding region from plasmid pBAD (J Bacteriol. 1995 July 177(14):4121-30) into plasmid pAH63. This fragment was PCR amplified from pBAD using primer pair E192 (ttcaCTGCAGtgaacgttgcgaagcaacggC) (SEQ ID NO:19) and E194 (TCGAggatcctcgagagcaaaaacaggaaggcaaaatgccg) (SEQ ID NO:20), digested with PstI and BamHI and inserted into similarly digested plasmid pAH63. Therefore, expression of beta-lactamases from pAH63-pstS(BlaP) based constructs is constitutive and the signal sequence is provided to direct these proteins to the periplasm. Plasmid pAH63 based vectors are used for insertion into the genome in single copy, however, to provide higher expression levels to allow more sensitive detection of the susceptibility of compounds to the expressed beta-lactamases, the expression inserts contained in these vectors were moved to the replicative multicopy vector pBAD-Kan (J Bacteriol. 1995 July 177(14):4121-30). To accomplish this, the inserts encompassing the beta-lactamase genes, with the associated TEM promoter and signal sequences, were PCR amplified from their corresponding vectors using primer E268 (ccgTCTAGAcggatggcctttttgcgtttc) (SEQ ID NO:21) and E202 (aatcGAATTCttactgaccattaacgcccaagc) (SEQ ID NO:22) for the KPC2 construct, E204 (aatcGAATTCttaacgctgccagtgctcaatc) (SEQ ID NO:23) for the SHV-12 construct and E203 (aatcGAATTCttacagaccgtcggtgacaatc) (SEQ ID NO:24) for the CTX-M-15 construct. These fragments were then digested with XbaI and EcoRI, and each was inserted into pBAD18-kan that had been digested with the same enzymes to generate multicopy vectors expressing KPC-2, SHV-12 and CTX-M-15, respectively. […]

Experiment [2] relates to K. pneumoniae NB29323 (CTX-M-15, OXA-48, VEB-1). The conditions noted are these: aztreonam alone. As to the method: as §1, §2
Experiment [3] relates to E. coli (SHV-12). The experiment in a line: microbe, parasite or virus in culture. The conditions noted are these: Escherichia coli, Pip alone, read-out: MIC of piperacillin. On the procedure: as §1, with “MIC.” for “MIC. Performance of the assay was monitored by testing aztreonam against laboratory quality control strains in accordance with guidelines of the CLSI.”
as §2
(§3) Strain NB27273 (BW25113 pspB::Km^r) was obtained from the Keio transposon insertion collection. The strain has the pspB gene replaced by a kanamycin resistance marker (BW25113 pspB::Km^r). This strain was cured of the transposon in pspB via FLP recombinase using published methodology. The resulting strain, BW25113 pspB, was used as a host for multicopy vectors expressing key beta-lactamases. Multicopy plasmids directing constitutive expression of beta-lactamases were established as follows: Synthetic, codon optimized genes encoding E. coli KPC-2, SHV-12 and CTX-M-15 beta-lactamases were made by DNA2.0 (Palo Alto, Calif.). Each of the synthetic fragments were designed to contain NotI and NcoI restriction sites at their termini, allowing ligation into a NotI/NcoI digested pET28a(+) derivative for protein expression. […] The codon optimized nucleotide sequences and relevant primer recognition information is shown below:
(§4) The PCR products were then digested with XhoI and EcoRI and ligated into similarly digested plasmid pAH63-pstS(BlaP). […] Therefore, expression of beta-lactamases from pAH63-pstS(BlaP) based constructs is constitutive and the signal sequence is provided to direct these proteins to the periplasm. […] These fragments were then digested with XbaI and EcoRI, and each was inserted into pBAD18-kan that had been digested with the same enzymes to generate multicopy vectors expressing KPC-2, SHV-12 and CTX-M-15, respectively. These vectors were transformed into BW25113 pspB to generate strains NB27273-CDY0033 (expressing KPC-2), NB27273-CDY0030 (expressing SHV-12), NB27273-CDY0034 (expressing CTX-M-15) and NB27273-CDY0036 (expressing AmpC). The pBAD18-kan vector also contains the TEM promoter region and signal sequence, (but lacks any intact beta-lactamase genes) and was transformed into BW25113 pspB using standard protocols to generate the control strain NB27273-CDY0026.

Experiment [4] concerns E. coli (KPC-2). The experiment in a line: microbe, parasite or virus in culture. The conditions noted are these: Escherichia coli, read-out: MIC of piperacillin. As to the method: as §1, with “MIC.” for “MIC. Performance of the assay was monitored by testing aztreonam against laboratory quality control strains in accordance with guidelines of the CLSI.”
as §2, §3, §4

Experiment [5] deals with E. coli (CTX-M-15). The experiment in a line: microbe, parasite or virus in culture. The conditions noted are these: Escherichia coli, Pip alone, read-out: MIC of piperacillin. On the procedure:
as §1, with “MIC.” for “MIC. Performance of the assay was monitored by testing aztreonam against laboratory quality control strains in accordance with guidelines of the CLSI.”
as §2, §3, §4

The test system of experiment [6] is E. coli (TEM-10). The experiment can be described thus: microbe, parasite or virus in culture. The conditions noted are these: Escherichia coli, Pip alone, read-out: MIC of piperacillin. On the procedure: as §1, with “MIC.” for “MIC. Performance of the assay was monitored by testing aztreonam against laboratory quality control strains in accordance with guidelines of the CLSI.”
as §2
(§5) Construction of E. coli isogenic strains, NB27273-CDY0105 (OXA-18) and NB27273-CDY0048 (TEM-10). […] The gene encoding OXA-18 was then digested with XhoI and EcoRI and inserted into this vector, from which the gene for GIM-1 had been removed with XhoI and EcoRI.
From this template DNA, three fragments were generated by PCR using the following primer pairs;
This fragment was then digested with XbaI and EcoRI and inserted into pBAD-kan which was also cut with the same enzymes.
(§6) These final vectors for expression of OXA-18 and TEM-10 were transformed into BW25113 pspB to generate strains NB27273-CDY0105 (expressing OXA-18) and NB27273-CDY0048 (expressing TEM-10).

Experiment [7] deals with E. coli (OXA-18). The experiment in a line: microbe, parasite or virus in culture. As to the method: as §1, with “MIC.” for “MIC. Performance of the assay was monitored by testing aztreonam against laboratory quality control strains in accordance with guidelines of the CLSI.”
as §2, §5, §6

Experiment [8] deals with K. pneumoniae NB29082 (KPC-2). The experiment in a line: Potentiation of piperacillin in beta-lactam resistant clinical isolate. As to the method:
as §1, §2

Experiment [9] deals with Enterobacter cloacae NB25055 (CMY-2). The experiment is described as above. As to the method:
as §1, §2

Experiment [10] concerns S. aureus NB01437 (BLA+). The description is as above. As to the method: as §1, §2

For the compound `C[C@H]1[C@H](NC(=O)/C(=N\OC(C)(C)C(=O)O)c2csc(N)n2)C(=O)N1S(=O)(=O)O` [Aztreonam], the MIC in [1] (read-out: MIC of aztreonam, AZ alone) worked out at 4 µg/mL. The Activity of aztreonam in [2] was above 64 µg/mL.

Turning to `CCN1CCN(C(=O)N[C@@H](C(=O)N[C@@H]2C(=O)N3C2SC(C)(C)[C@@H]3C(=O)O)c2ccccc2)C(=O)C1=O` (stereo partly drawn) [Piperacillin], the MIC in experiment [1] (Pip alone, read-out: MIC of piperacillin) was above 32 µg/mL; in experiment [3], above 32 µg/mL; in experiment [4], above 32 µg/mL; in experiment [5], above 32 µg/mL; in experiment [6], above 32 µg/mL; in experiment [7] (Escherichia coli, Pip alone, read-out: MIC of piperacillin), above 32 µg/mL. Moreover, the Activity of piperacillin in [8] (piperacillin alone) was above 64 µg/mL; in [9] (piperacillin alone), above 64 µg/mL; in experiment [10] (piperacillin alone) it was 64 µg/mL.

Regarding `C[C@]1(Cn2ccnn2)[C@H](C(=O)O)N2C(=O)C[C@H]2S1(=O)=O` [Tazobactam], the “MIC of piperacillin with beta-lactamase inhibitor” value in experiment [7] (Pip + BLI at 4 μg/mL) is 8 µg/mL. Besides, the “Activity of piperacillin with beta-lactamase inhibitor” value was above 64 µg/mL in [8] (Pip + BLI at 4 μg/mL), 64 µg/mL in experiment [9] (Pip + BLI at 4 μg/mL) and 1 µg/mL in [10] (Pip + BLI at 4 μg/mL).
